Data as given in ChEMBL document CHEMBL1201862, “PubChem BioAssay data set” (2004).
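Briefly, cells in 96-well plates were exposed to five compound concentrations for 48 h, and endpoints were estimated by linear interpolation. Here, GI50 denotes the concentration required for 50% inhibition of growth.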 The source made the active and inactive calls. Cut-off read from the data, not from the text of the source: active = GI50 up to about 1.1 µM and inactive = higher.

What was measured:
Assay in all cases: NCI-60 cell line screen, 48 h
MDA-MB-231 = tested on: MDA-MB-231
EKVX = tested on: EKVX
ACHN = tested on: ACHN
MCF7 = tested on: MCF7
SW-620 = tested on: SW-620
U-251 = tested on: U-251
HCC 2998 = tested on: HCC 2998
K562 = tested on: K562
SNB-75 = tested on: SNB-75
SK-MEL-5 = tested on: SK-MEL-5
UO-31 = tested on: UO-31
SN12C = tested on: SN12C
HCT-116 = tested on: HCT-116
NCI-H460 = tested on: NCI-H460
786-0 = tested on: 786-0
M14 = tested on: M14
MOLT-4 = tested on: MOLT-4
CAKI-1 = tested on: CAKI-1
Malme-3M = tested on: Malme-3M
HOP-92 = tested on: HOP-92

CC(N/N=C(\S)N1CCCC1)c1cccnn1 (centres undefined)
GI50 (MDA-MB-231): 1.03 µM (active) | GI50 (EKVX): 0.294 µM (active) | GI50 (ACHN): 0.391 µM (active) | GI50 (MCF7): 0.308 µM (active) | GI50 (SW-620): 0.579 µM (active) | GI50 (U-251): 0.358 µM (active) | GI50 (HCC 2998): 18.5 µM (inactive) | GI50 (K562): 0.632 µM (active) | GI50 (SNB-75): 7.52 µM (inactive) | GI50 (SK-MEL-5): 0.279 µM (active) | GI50 (UO-31): 0.741 µM (active) | GI50 (SN12C): 0.778 µM (active) | GI50 (HCT-116): 0.335 µM (active) | GI50 (NCI-H460): 0.306 µM (active) | GI50 (786-0): 0.452 µM (active) | GI50 (M14): 0.378 µM (active) | GI50 (MOLT-4): 0.351 µM (active) | GI50 (CAKI-1): 0.713 µM (active) | GI50 (Malme-3M): 0.849 µM (active)

Cc1ccc(/C(O)=C/c2nc3ccccc3oc2=O)cc1
GI50 (MDA-MB-231): > 100 µM (inactive) | GI50 (EKVX): > 100 µM (inactive) | GI50 (ACHN): 58.1 µM (inactive) | GI50 (MCF7): 47.6 µM (inactive) | GI50 (U-251): > 100 µM (inactive) | GI50 (HCC 2998): > 100 µM (inactive) | GI50 (K562): 27.4 µM (inactive) | GI50 (SNB-75): > 100 µM (inactive) | GI50 (SK-MEL-5): 19.2 µM (inactive) | GI50 (UO-31): 40.1 µM (inactive) | GI50 (SN12C): > 100 µM (inactive) | GI50 (HCT-116): 75.3 µM (inactive) | GI50 (NCI-H460): > 100 µM (inactive) | GI50 (786-0): 85.3 µM (inactive) | GI50 (M14): > 100 µM (inactive) | GI50 (MOLT-4): 45.4 µM (inactive) | GI50 (CAKI-1): > 100 µM (inactive) | GI50 (Malme-3M): 34.1 µM (inactive)

C=CCOCn1cnc2c(N)ncnc21
GI50 (MDA-MB-231): > 100 µM (inactive) | GI50 (EKVX): > 100 µM (inactive) | GI50 (ACHN): > 100 µM (inactive) | GI50 (MCF7): > 100 µM (inactive) | GI50 (SW-620): > 100 µM (inactive) | GI50 (U-251): > 100 µM (inactive) | GI50 (HCC 2998): > 100 µM (inactive) | GI50 (K562): > 100 µM (inactive) | GI50 (SNB-75): > 100 µM (inactive) | GI50 (SK-MEL-5): > 100 µM (inactive) | GI50 (UO-31): > 100 µM (inactive) | GI50 (SN12C): > 100 µM (inactive) | GI50 (HCT-116): > 100 µM (inactive) | GI50 (NCI-H460): > 100 µM (inactive) | GI50 (786-0): > 100 µM (inactive) | GI50 (M14): > 100 µM (inactive) | GI50 (MOLT-4): > 100 µM (inactive) | GI50 (CAKI-1): > 100 µM (inactive) | GI50 (Malme-3M): > 100 µM (inactive)

COC(=O)[C@H](C)NC(=O)[C@H](NS(=O)(=O)c1nc2ccccc2s1)c1ccccc1
GI50 (MDA-MB-231): 25.9 µM (inactive) | GI50 (EKVX): 47.6 µM (inactive) | GI50 (ACHN): 33.9 µM (inactive) | GI50 (MCF7): 34 µM (inactive) | GI50 (SW-620): 37.3 µM (inactive) | GI50 (HOP-92): 12.6 µM (inactive) | GI50 (U-251): 20.5 µM (inactive) | GI50 (HCC 2998): 20.1 µM (inactive) | GI50 (K562): 94.4 µM (inactive) | GI50 (SNB-75): 18.6 µM (inactive) | GI50 (SK-MEL-5): 15.8 µM (inactive) | GI50 (UO-31): 19.7 µM (inactive) | GI50 (HCT-116): 44.3 µM (inactive) | GI50 (NCI-H460): 24.9 µM (inactive) | GI50 (786-0): 29.2 µM (inactive) | GI50 (M14): 10.4 µM (inactive) | GI50 (MOLT-4): 29 µM (inactive) | GI50 (CAKI-1): 32.4 µM (inactive)

CC1(C)OC2C(CO)OC(n3cnc(N)nc3=O)C2O1 (centres undefined)
GI50 (MDA-MB-231): > 100 µM (inactive) | GI50 (EKVX): > 100 µM (inactive) | GI50 (ACHN): > 100 µM (inactive) | GI50 (MCF7): > 100 µM (inactive) | GI50 (SW-620): > 100 µM (inactive) | GI50 (HOP-92): > 100 µM (inactive) | GI50 (U-251): > 100 µM (inactive) | GI50 (HCC 2998): > 100 µM (inactive) | GI50 (K562): > 100 µM (inactive) | GI50 (SK-MEL-5): > 100 µM (inactive) | GI50 (UO-31): > 100 µM (inactive) | GI50 (SN12C): > 100 µM (inactive) | GI50 (HCT-116): > 100 µM (inactive) | GI50 (NCI-H460): > 100 µM (inactive) | GI50 (786-0): > 100 µM (inactive) | GI50 (M14): > 100 µM (inactive) | GI50 (MOLT-4): > 100 µM (inactive) | GI50 (CAKI-1): > 100 µM (inactive)

O=C(Cc1ccc(OCc2cccc(Cl)c2)cc1)NO
GI50 (MDA-MB-231): 41.8 µM (inactive) | GI50 (EKVX): 25.3 µM (inactive) | GI50 (ACHN): 25.2 µM (inactive) | GI50 (MCF7): 37.8 µM (inactive) | GI50 (SW-620): 31.3 µM (inactive) | GI50 (HOP-92): 41 µM (inactive) | GI50 (U-251): 28.9 µM (inactive) | GI50 (HCC 2998): 58.7 µM (inactive) | GI50 (K562): 16.1 µM (inactive) | GI50 (SNB-75): 25.8 µM (inactive) | GI50 (SK-MEL-5): 33.3 µM (inactive) | GI50 (UO-31): 12.8 µM (inactive) | GI50 (SN12C): 27.6 µM (inactive) | GI50 (HCT-116): 24.5 µM (inactive) | GI50 (NCI-H460): 23.1 µM (inactive) | GI50 (786-0): 14.7 µM (inactive) | GI50 (M14): 29.4 µM (inactive) | GI50 (MOLT-4): 2.98 µM (inactive) | GI50 (CAKI-1): 19.9 µM (inactive)

NC(Cc1c[nH]c2cc([N+](=O)[O-])ccc12)C(=O)O (centres undefined)
GI50 (MDA-MB-231): > 100 µM (inactive) | GI50 (EKVX): > 100 µM (inactive) | GI50 (ACHN): > 100 µM (inactive) | GI50 (MCF7): > 100 µM (inactive) | GI50 (SW-620): > 100 µM (inactive) | GI50 (HOP-92): 67.6 µM (inactive) | GI50 (U-251): > 100 µM (inactive) | GI50 (K562): > 100 µM (inactive) | GI50 (SNB-75): > 100 µM (inactive) | GI50 (SK-MEL-5): > 100 µM (inactive) | GI50 (UO-31): > 100 µM (inactive) | GI50 (SN12C): > 100 µM (inactive) | GI50 (HCT-116): > 100 µM (inactive) | GI50 (NCI-H460): > 100 µM (inactive) | GI50 (786-0): > 100 µM (inactive) | GI50 (M14): > 100 µM (inactive) | GI50 (MOLT-4): > 100 µM (inactive) | GI50 (CAKI-1): > 100 µM (inactive) | GI50 (Malme-3M): > 100 µM (inactive)

CC1=NN(c2ccccc2)C(=O)C1/N=N/c1ccc([As](=O)(O)O)c(O)c1 (centres undefined)
GI50 (MDA-MB-231): > 100 µM (inactive) | GI50 (EKVX): > 100 µM (inactive) | GI50 (ACHN): > 100 µM (inactive) | GI50 (MCF7): > 100 µM (inactive) | GI50 (SW-620): > 100 µM (inactive) | GI50 (HOP-92): > 100 µM (inactive) | GI50 (U-251): > 100 µM (inactive) | GI50 (K562): > 100 µM (inactive) | GI50 (SNB-75): > 100 µM (inactive) | GI50 (SK-MEL-5): > 100 µM (inactive) | GI50 (UO-31): > 100 µM (inactive) | GI50 (SN12C): > 100 µM (inactive) | GI50 (HCT-116): > 100 µM (inactive) | GI50 (NCI-H460): > 100 µM (inactive) | GI50 (786-0): > 100 µM (inactive) | GI50 (M14): > 100 µM (inactive) | GI50 (MOLT-4): > 100 µM (inactive) | GI50 (CAKI-1): > 100 µM (inactive) | GI50 (Malme-3M): > 100 µM (inactive)

Cc1ccc(-c2cc(O)c3nc4ccccc4n3c2)cc1
GI50 (MDA-MB-231): > 100 µM (inactive) | GI50 (EKVX): > 100 µM (inactive) | GI50 (MCF7): > 100 µM (inactive) | GI50 (SW-620): > 100 µM (inactive) | GI50 (HOP-92): > 100 µM (inactive) | GI50 (U-251): > 100 µM (inactive) | GI50 (K562): > 100 µM (inactive) | GI50 (SNB-75): > 100 µM (inactive) | GI50 (UO-31): > 100 µM (inactive) | GI50 (SN12C): > 100 µM (inactive) | GI50 (HCT-116): > 100 µM (inactive) | GI50 (NCI-H460): 60.8 µM (inactive) | GI50 (786-0): > 100 µM (inactive) | GI50 (M14): > 100 µM (inactive) | GI50 (MOLT-4): > 100 µM (inactive) | GI50 (CAKI-1): > 100 µM (inactive) | GI50 (Malme-3M): > 100 µM (inactive)

CC(=O)/C=C/C=C(\C)CC/C=C(\C)CC(C)C
GI50 (MDA-MB-231): 40.9 µM (inactive) | GI50 (EKVX): 37.3 µM (inactive) | GI50 (ACHN): 29.9 µM (inactive) | GI50 (MCF7): 22.8 µM (inactive) | GI50 (SW-620): 17.1 µM (inactive) | GI50 (HOP-92): 0.558 µM (active) | GI50 (U-251): 25.4 µM (inactive) | GI50 (HCC 2998): 18.4 µM (inactive) | GI50 (K562): 21.6 µM (inactive) | GI50 (SNB-75): 35.2 µM (inactive) | GI50 (SK-MEL-5): 18.5 µM (inactive) | GI50 (UO-31): 76.6 µM (inactive) | GI50 (SN12C): 31.4 µM (inactive) | GI50 (HCT-116): 21.8 µM (inactive) | GI50 (NCI-H460): 29.9 µM (inactive) | GI50 (786-0): 34 µM (inactive) | GI50 (M14): 52.2 µM (inactive) | GI50 (MOLT-4): 18.1 µM (inactive) | GI50 (CAKI-1): 40.8 µM (inactive)

O=C1C(C(c2ccc([N+](=O)[O-])cc2)N2CCOCC2)=C(O)C(c2ccccc2)N1c1ccccc1 (centres undefined)
GI50 (MDA-MB-231): > 10 µM (inactive) | GI50 (EKVX): > 10 µM (inactive) | GI50 (ACHN): > 10 µM (inactive) | GI50 (MCF7): > 10 µM (inactive) | GI50 (SW-620): > 10 µM (inactive) | GI50 (U-251): > 10 µM (inactive) | GI50 (HCC 2998): > 10 µM (inactive) | GI50 (K562): > 10 µM (inactive) | GI50 (SNB-75): 6.14 µM (inactive) | GI50 (SK-MEL-5): > 10 µM (inactive) | GI50 (UO-31): > 10 µM (inactive) | GI50 (SN12C): > 10 µM (inactive) | GI50 (HCT-116): > 10 µM (inactive) | GI50 (NCI-H460): > 10 µM (inactive) | GI50 (786-0): > 10 µM (inactive) | GI50 (M14): > 10 µM (inactive) | GI50 (MOLT-4): > 10 µM (inactive) | GI50 (CAKI-1): > 10 µM (inactive) | GI50 (Malme-3M): > 10 µM (inactive)
